For this data set the following is noted: 101 kPa, Liquid.

For 3 compounds, mass density results are on record in the NIST ThermoML archive (doi:10.1021/je4001944).

± gives the expanded uncertainty stated by the source.

For `CCCCCC[n+]1ccn(C)c1.O=S(=O)([N-]S(=O)(=O)C(F)(F)F)C(F)(F)F`, the mass density (commonly the mass of a sample divided by its volume) is 1391 ± 11 kg/m3 (298.15 K), 1373 ± 11 kg/m3 (308.15 K) and 1340 ± 10 kg/m3 (323.15 K).

In the case of `CCCCCCCCCCn1cc[n+](C)c1.O=S(=O)([N-]S(=O)(=O)C(F)(F)F)C(F)(F)F`, the mass density turned out to be 1284 ± 10 kg/m3 (298.15 K), 1256 ± 10 kg/m3 (308.15 K) and 1221 ± 10 kg/m3 (323.15 K).

Turning to `CCCCCCCCn1cc[n+](C)c1.O=S(=O)([N-]S(=O)(=O)C(F)(F)F)C(F)(F)F`, the mass density runs as follows: (298.15 K) 1343 ± 11 kg/m3; (308.15 K) 1323 ± 10 kg/m3; (323.15 K) 1287 ± 10 kg/m3.
